# Tested on: GAT-1 in patient astrocytes
# Test: 3H GABA uptake, patient iPSC derived astrocytes
# Assay type: cell-based, human
# Conditions: PBA 2 mM
# Protocol: Live images of human neural progenitor cells (NPCs), astrocytes and GABAergic inhibitory neurons differentiated from the human induced pluripotent stem cells (iPSCs) on the day of experiment. […] The DMSO treated corrected or patient cells was taken as 1. […] GABA flux was measured after 30 min transport at room temperature. The influx of GABA, expressed in pmol/μg protein/min, was averaged from duplicates for each condition and for each transfection. The average counting was DMSO treated condition taken as 1. In FIG. 5B, FIG. 5D and FIG. 5F, 966 stands for CI-966 (50 μM) and 711 stands for NNC-711 (35 μM) that was applied 30 min to the astrocytes transfected with the wildtype GAT-1^YFP before preincubation and removed during preincubation. In FIGS. 5B and D, ***p<0.001 vs. corrected DMSO treated. § § <0.01, § § § p<0.001 vs. patient DMSO treated. […] In FIGS. 5B-E, n=4-8 batches of cells. In FIG. 5F, n=4-5 different transfections). Unpaired t test was used for FIG. 5C and FIG. 5E. […] Values were expressed as mean±S.E.M.). […]
# Briefly, cells were cultured in […] dishes for 3 days before the GABA uptake experiment in DMEM with 10% fetal bovine serum and 1% penicillin/streptomycin. […] Glacial acetic acid was added, and lysates were then determined on a liquid scintillator with QuantaSmart. […]
smiles,measurement,setting,value
"O=C(O)CCCc1ccccc1 [PBA, 4-phenylbutyric acid]",GABA uptake normalized to its DMSO treated,24 hrs,1.387±0.08
same,GABA uptake of the patient cells as % of the corrected cells,24 hrs (57% with DMSO),81%

# From US20260144769A1, “4-PHENYLBUTYRATE RESTORED GABA UPTAKE AND REDUCED SEIZURES IN SLC6A1 VARIANT-MEDIATED DISORDERS” (Vanderbilt University, priority 2022, published 2026)
